Article PMC12261233, “Photoactivatable Cyclometalated Ir(III) Compound Penetrates the Blood-Brain Barrier in 3D Spheroidal and Advanced 3D Organoid Models of Inherently Resistant and Aggressive Brain Tumors” (ACS Pharmacology & Translational Science, 2025)

Columns and labels:
[1] = Photocatalytic oxidation of NADH under blue light; type: biochemical; conditions: blue light 465 nm, 4.8 mW cm^–2; NADH 100 µM, complex 5 µM
Method: Photostability is essential for PDT agents, as photobleaching can compromise their effectiveness. […] Control experiments in the absence of Ir(III) complexes (Figure S24) or light (Figure S25) corroborated the photocatalytic character of this transformation. […] Additionally, singlet oxygen (^1O2) is the primary cytotoxic species in Type II PDT. , The ability of complexes Ir3–Ir5 and Ir10 to generate singlet oxygen was evaluated by measuring the decrease in […] (DPBF) absorbance at 411 nm under blue light irradiation (Figure S26). […] This confirmed the production of hydroxyl radicals, particularly with complexes Ir3 and Ir10, after 8 min of irradiation (Figure S29).
1. Photocatalytic properties of complexes Ir1−Ir10 in cell-free media.
1.1. Photooxidation of NADH.
The ability of the complexes to photocatalyse the oxidation of NADH was evaluated by recording the absorption spectra of NADH (100 µM) in the presence of complex (5 µM) in PBS (5% DMF) upon blue light irradiation (EXPO-Panels from Luzchem (Canadá)) (465 nm, 5.0 […]
1.2. Quantum yields for the generation of 1O2. […]
Where ΦΔR is the reference quantum yield, mR and mS are the slopes of the reference and sample, respectively, and AR and AS are the absorbance of the reference and the sample at the […]

[2] = test system: hCMEC/D3 cells; assay: Iridium uptake in Transwell binary coculture BBB model (ICP-MS), hCMEC/D3; type: cell-based, human; conditions: 10 μM applied apically, 24 h
Method: (§1) The cellular uptake of anticancer compounds after penetrating the BBB is crucial for their efficacy in treating brain tumors. Understanding the extent of cellular uptake provides insights into the distribution and localization of these compounds within brain tumor cells, making such studies essential for assessing their potential efficacy. We utilized the static Transwell binary coculture BBB model, comprising an […] hCMEC/D3 cell line (representing the BBB) and a glioblastoma U87MG cell line. In this model, hCMEC/D3 cells were seeded on the apical side of the Transwell, while U87MG cells were seeded on the basolateral side. […] After a 24-h incubation, cells were harvested, counted, and the iridium uptake by both cell lines was analyzed using ICP-MS. […]
(§2) To confirm that the tested compounds can effectively target and accumulate in the desired U87MG glioblastoma cells, a coculture model was employed to monitor cellular uptake in both hCMEC/D3 cells and U87MG cells. […] The total iridium uptake by U87MG or hCMEC/D3 cells was analyzed 24 h after treatment. In brief, the apical and basolateral parts were separated, and each cellular model was harvested by trypsinization, pelleted by centrifugation, and counted. […] The final iridium content was determined through ICP-MS analysis. The experiments were replicated in triplicate, and the data are expressed as nanograms of iridium per one million cells.

[3] = test system: hiPSC-derived cerebral organoids; assay: Cerebral organoid volume growth after treatment (healthy tissue); type: cell-based, human; conditions: fusion system, untreated control 25%
Method: To assess the treatment’s impact on healthy tissue, cerebral organoid volumes were measured using phase-contrast or bright-field confocal microscopy with manually defined regions of interest.

[4] = test system: U87MG spheroids; assay: Detection of ROS (CellRox) and PPI in spheroids by confocal microscopy; type: cell-based, human
Method: We evaluated ROS induction in glioblastoma U87MG spheroids treated with Ir4 at its IC50 concentration for 3 h, followed by blue laser light irradiation (405 nm, 60 s, 1 mW). ROS levels were quantified using the CellRox probe, with PPI employed to assess immediate cell death. Z-stack imaging was performed before irradiation and at 1, 15, and 30 min postirradiation (Figure , panel I). Mean fluorescence intensity in the z-stack projections quantified ROS generation (Figure , panel II).
The spheroids were exposed to Ir4 (IC50, U87MG 3D, 72 h) for 3 h or maintained under drug-free conditions (control). Subsequently, the samples were stained with CellRox reagent (5 μM) and PPI (8 μg mL^–1) before being irradiated for 60 s with blue laser light (405 nm, 1 mW). Imaging of the samples was conducted before or immediately after the irradiation (1 min postirradiation) and at defined time intervals (15 and 30 min). The fluorescence scanning was performed sequentially in z-stack mode (10 z-stacks). Postirradiation imaging was conducted for a total of 90 min, with only the data collected up to 30 min being presented and quantified. The experiments were independently replicated in triplicate.

[5] = test system: U87MG cells; assay: Iridium uptake in Transwell binary coculture BBB model (ICP-MS), U87MG; type: cell-based, human; conditions: 24 h
Method: as §1, §2

Structure (SMILES) | Turnover Frequency (TOF) of NADH photo-oxidation [1] | iridium uptake by hCMEC/D3 cells [2] | increase in cerebral organoid volume over 120 h [3] | PPI fluorescence intensity postirradiation ([4]; 15 and 30 min postirradiation) | ROS level compared to preirradiation level, 1 min ([4]; IC50 3 h, 405 nm 60 s 1 mW, 1 min postirradiation) | ROS level compared to preirradiation level, 15 min ([4]; IC50 3 h, 405 nm 60 s 1 mW, 15 min postirradiation) | ROS level compared to preirradiation level, 30 min ([4]; IC50 3 h, 405 nm 60 s 1 mW, 30 min postirradiation) | ROS level versus untreated controls before laser irradiation ([4]; IC50 (U87MG 3D, 72 h) for 3 h, CellRox, dark) | iridium uptake by U87MG cells ([5]; 10 μM applied apically, binary coculture BBB model, basolateral cells) | accumulation in U87MG cells compared to hCMEC/D3 cells ([5]; 10 μM, coculture)
Cc1ccc(-c2cc3[n+]4c(c2)-c2cccc[n+]2[Ir-3]42([Cl])([c]4cc5ccccc5cc4-c4n(Cc5ccc(C(F)(F)F)cc5)c5ccccc5[n+]42)[n+]2ccccc2-3)cc1.F[P-](F)(F)(F)(F)F [Ir3] | about 110 h^–1 |  |  |  |  |  |  |  |  | 
CCCCn1c2[n+](c3cc(C(=O)OC)ccc31)[Ir-3]13([Cl])([c]4ccccc4-2)[n+]2ccccc2-c2cc(-c4ccc(C)cc4)cc([n+]21)-c1cccc[n+]13.F[P-](F)(F)(F)(F)F [Ir4] |  | 47 ± 7 ng Ir/10^6 cells | 24% | slight but significant increase | 1.8 fold | 2.3 fold | 2.5 fold | 1.8 times | 108 ± 14 ng Ir/10^6 cells | more than 2 fold
Cn1nnc2c(C(N)=O)ncn2c1=O [Temozolomide, reference compound] |  |  | 21% |  |  |  |  |  |  | 
